Assay results reported in ChEMBL document CHEMBL1136804, “Adenosine kinase inhibitors. 3. Synthesis, SAR, and antiinflammatory activity of a series of l-lyxofuranosyl nucleosides” (J Med Chem, 2003).

Tests used:
[1] = molecular target: Adenosine kinase (Homo sapiens, UniProt P55263); assay: Inhibitory activity against human recombinant adenosine kinase
[2] = tested on: Rattus norvegicus; assay: Anti-inflammatory activity at a dose of 10 mg/kg, perorally in rat Carrageenan paw edema model; assay type: functional; conditions: route oral

Adenosine kinase, sequence (P55263 whole entry): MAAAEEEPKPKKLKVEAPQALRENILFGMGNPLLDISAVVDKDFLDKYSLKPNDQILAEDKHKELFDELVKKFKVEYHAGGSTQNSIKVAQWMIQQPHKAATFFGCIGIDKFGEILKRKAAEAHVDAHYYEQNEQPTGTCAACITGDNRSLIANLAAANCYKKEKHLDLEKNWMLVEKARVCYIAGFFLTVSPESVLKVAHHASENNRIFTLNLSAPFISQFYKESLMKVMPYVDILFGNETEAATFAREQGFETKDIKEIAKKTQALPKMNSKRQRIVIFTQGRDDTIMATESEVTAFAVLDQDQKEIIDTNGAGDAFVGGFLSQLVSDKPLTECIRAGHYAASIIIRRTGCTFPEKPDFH

SMILES	IC50 [1]	inhibition in vivo at 10 mg/kg [2]
NC[C@@H]1O[C@@H](n2cnc3c(N)ncnc32)[C@H](O)[C@@H]1O (single isomer, unassigned)	10 µM	
Nc1ncnc2c1c(I)cn2[C@@H]1O[C@@H](CO)[C@@H](O)[C@H]1O (single isomer, unassigned)		43.8%
Nc1ncnc2c1c(Br)cn2[C@@H]1O[C@@H](CO)[C@@H](O)[C@H]1O (single isomer, unassigned)	0.28 µM	
COC[C@@H]1O[C@@H](n2cc(I)c3c(N)ncnc32)[C@H](O)[C@@H]1O (single isomer, unassigned)	2 µM	
Nc1ncnc2c1ncn2[C@@H]1O[C@@H](CO)[C@@H](O)[C@H]1O (single isomer, unassigned)	1 µM	
C[C@H]1O[C@@H](n2cc(-c3ccccc3)c3c(Nc4ccc(F)cc4)ncnc32)[C@H](O)[C@@H]1O (single isomer, unassigned)	0.005 µM	
NC[C@@H]1O[C@@H](n2nc(-c3ccccc3)c3c(Nc4ccccc4)ncnc32)[C@H](O)[C@@H]1O (single isomer, unassigned)	0.042 µM	
OC[C@@H]1O[C@@H](n2nc(-c3ccccc3)c3c(Nc4ccccc4)ncnc32)[C@H](O)[C@@H]1O (single isomer, unassigned)	0.0028 µM	14.2%
OC[C@@H]1O[C@@H](n2cc(-c3ccccc3)c3c(Nc4ccc(F)cc4)ncnc32)[C@H](O)[C@@H]1O (single isomer, unassigned)	0.0015 µM	53.5%
COC[C@@H]1O[C@@H](n2cc(-c3ccccc3)c3c(Nc4ccccc4)ncnc32)[C@H](O)[C@@H]1O (single isomer, unassigned)	0.015 µM	86%

Continued, in another order:

IC50 [1]	SMILES	inhibition in vivo at 10 mg/kg [2]
0.004 µM	NC[C@H]1O[C@@H](n2nc(Br)c3c(N)ncnc32)[C@H](O)[C@@H]1O (single isomer, unassigned)	
0.016 µM	NC[C@@H]1O[C@@H](n2cc(I)c3c(N)ncnc32)[C@H](O)[C@@H]1O (single isomer, unassigned)	
10 µM	Nc1ncnc2c1c(Br)nn2[C@@H]1O[C@@H](CO)[C@@H](O)[C@H]1O (single isomer, unassigned)	
0.17 µM	NC[C@@H]1O[C@@H](n2nc(Br)c3c(N)ncnc32)[C@H](O)[C@@H]1O (single isomer, unassigned)	
